Measurements: US12403129B2, “Isotope-enriched 3-amino-1-propanesulfonic acid derivatives for the treatment of cerebrovascular disease” (RISEN (SUZHOU) PHARMA TECH CO., LTD., priority 2021, dated 2025)
“Also recorded” adds a separate entry of the source.

Experiments:
[1] = system: rat model of dementia caused by multiple cerebral infarction; assay: Cognitive tests in rat model of dementia caused by multiple cerebral infarction; type: in vivo, SD rats
Description: 135 SPF grade SD rats (75 females, 60 males, weighing 200-220 g) were used. Anesthesia was performed by intraperitoneal injection of 3.5% chloral hydrate (350 mg/kg). After dorsal fixation, neck hair removal and iodophor disinfection, animals were cut along the middle of the neck to separate the right common carotid artery, external carotid artery and internal carotid artery. The common carotid artery was temporarily clamped by the artery clamp, the left external carotid artery was retrogradely punctured to the beginning of the left internal carotid artery with a pediatric scalp needle, and then 0.4 ml of embolic normal saline suspension was slowly injected with a syringe (the preparation of embolic normal saline suspension was as follows: blood was collected from the abdominal aorta of the same rat, dried naturally in a 37° C. incubator, and prepared for 80-200 minutes to form a blood clot; during application, 0.3 ml normal saline was added to every 10 mg blood clot), and the common carotid artery clamp was opened at the same time, then the external carotid artery was ligated and the skin was sutured. In the sham operation group, 0.4 ml normal saline was used instead of embolic suspension. The experimental animals were randomly divided into 6 groups according to weight balance, as follows: sham operation group, model group, positive control group (donepezil) and test compound group (different doses). There were 12-14 rats in each group. The animals in each group began to give drugs by gavage after modeling until the end of the experiment. The animals underwent Y maze experiment on the 16th day of administration, new object discrimination experiment on the 17th-20th day, Morris water maze experiment on the 22nd-27th day, and dark avoidance experiment on the 28th-29th day. On the 30th day, animals were sacrificed and tissues harvested for analysis.
The main pathological indexes included investigation of the improvement of learning and memory impairment in the dementia model animal by test compound using behavioral experimental methods such as Y maze, new object discrimination, Morris water maze and passive avoidance test (dark avoidance); investigation of the protective effect of test compound on mitochondria by detecting the content of ATP in hippocampus and cortex of rats; and investigation of levels of oxidative stress in the rat brain by measuring activity of superoxide dismutase (SOD, which is an oxygen free-radical scavenger), glutathione peroxidase (GSH-Px, which scavenges lipid peroxides induced by reactive oxygen species and —OH), nitric oxide synthase (NOS), malondialdehyde (MDA), and nitric oxide (NO). The ultrastructure of nerve cells (including nucleus, mitochondria and synapse) was investigated using immunofluorescence and transmission electron microscope. Expression of synaptic associated proteins SYP and PSD95 was detected by Western blotting. Experimental results for compound 4 on the concentration of nitric oxide (NO), the activity of nitric oxide synthase (NOS) and the ultrastructure of nerve cells in the rat model of dementia caused by multiple cerebral infarction are shown in FIGS. 7-11. Experimental results were statistically analyzed using IBM SPSS 21.0 software. The differences between groups were compared by one-way ANOVA or two-way ANOVA (water maze directional navigation) and LSD test.

PSD95 [2] = assay: PSD95 expression by Western blotting, multiple cerebral infarction dementia rats; type: in vivo, SD rats; details: compared with the model group, p<0.05
Description: (§1) 135 SPF grade SD rats (75 females, 60 males, weighing 200-220 g) were used. Anesthesia was performed by intraperitoneal injection of 3.5% chloral hydrate (350 mg/kg). After dorsal fixation, neck hair removal and iodophor disinfection, animals were cut along the middle of the neck to separate the right common carotid artery, external carotid artery and internal carotid artery. […]
(§2) The main pathological indexes included investigation of the improvement of learning and memory impairment in the dementia model animal by test compound using behavioral experimental methods such as Y maze, new object discrimination, Morris water maze and passive avoidance test (dark avoidance); investigation of the protective effect of test compound on mitochondria by detecting the content of ATP in hippocampus and cortex of rats; and investigation of levels of oxidative stress in the rat brain by measuring activity of superoxide dismutase (SOD, which is an oxygen free-radical scavenger), glutathione peroxidase (GSH-Px, which scavenges lipid peroxides induced by reactive oxygen species and —OH), nitric oxide synthase (NOS), malondialdehyde (MDA), and nitric oxide (NO). […] Expression of synaptic associated proteins SYP and PSD95 was detected by Western blotting. […] Experimental results were statistically analyzed using IBM SPSS 21.0 software. […]

[3] = cited from earlier work
[4] = system: neuronal cells in hippocampal CA1 area and CA3 area and cerebral cortex; assay: Neuronal cell morphology in ischemia-reperfusion dementia mice; type: in vivo, C57BL/6J mice; details: compared with the model group
Description: (§3) 140 healthy C57BL/6J mice, including 70 males and 70 females, were used. 1% Pentobarbital Sodium (50 mg/kg) was injected intraperitoneally to anesthetize the mice. The back position was fixed, the neck hair was removed, and the common carotid arteries were cut along the middle of the neck after iodophor disinfection. The common carotid arteries were separated, clamped with a noninvasive artery clamp for 15 minutes, released for 10 minutes, and then clamped for 10 minutes. Penicillin powder was then applied to suture muscles and skin. The sham operation group was not clamped, and other operations were the same as for the model group. […] Mice were divided into 6 groups: sham operation group, model group, positive control group (donepezil) and test compound group (different doses). Test compounds were administered by gavage to each group on the next day of modeling. The compound group was given compounds once a day in the morning and evening, and the volume of each gavage was 10 ml/kg. Half of the animals in the sham operation group and the model group were given the same amount of distilled water, and half of the animals were given the same amount of 1% sodium carboxymethylcellulose solution. […]
The main pathological index included: investigation of the improvement of learning and memory impairment by the compound in the pathogenic model of cerebral ischemia-reperfusion using behavioral experimental methods such as Y maze, new object discrimination, spontaneous activity, Morris water maze and passive avoidance experiment (dark avoidance); investigation of the ultrastructure of nerve cells (including nucleus, mitochondria and synapse) by HE staining and immunofluorescence; detection of expression of synaptic associated proteins SYP and PSD95 by Western blotting; and detection of expression of apoptosis-related proteins Bcl-2 and Bax by Western blotting. […] Experimental results were analyzed statistically using IBM SPSS 21.0 software. […]

nitric oxide (NO) = assay: NO concentration in cerebral cortex, multiple cerebral infarction dementia rats; type: in vivo, SD rats; details: compared with the model group, p<0.05
Description: Compound 4, 120 mg/kg, bid; D. Compound 4, 240 mg/kg, bid; E. Compound 4, 480 mg/kg, bid; F. Donepezil, 0.9 mg/kg. Compared with sham operation group: ### P<0.001; Compared with the model group: ** P<0.01, *** P<0.001.
135 SPF grade SD rats (75 females, 60 males, weighing 200-220 g) were used. Anesthesia was performed by intraperitoneal injection of 3.5% chloral hydrate (350 mg/kg). After dorsal fixation, neck hair removal and iodophor disinfection, animals were cut along the middle of the neck to separate the right common carotid artery, external carotid artery and internal carotid artery. The common carotid artery was temporarily clamped by the artery clamp, the left external carotid artery was retrogradely punctured to the beginning of the left internal carotid artery with a pediatric scalp needle, and then 0.4 ml of embolic normal saline suspension was slowly injected with a syringe (the preparation of embolic normal saline suspension was as follows: blood was collected from the abdominal aorta of the same rat, dried naturally in a 37° C. incubator, and prepared for 80-200 minutes to form a blood clot; during application, 0.3 ml normal saline was added to every 10 mg blood clot), and the common carotid artery clamp was opened at the same time, then the external carotid artery was ligated and the skin was sutured. […]

MBP = MBP expression, multiple cerebral infarction dementia rats; type: in vivo, SD rats; details: compared with the model group, p<0.05
Description: as §1, §2

SYP [5] = assay: SYP expression in hippocampus by Western blotting, ischemia-reperfusion dementia mice; type: in vivo, C57BL/6J mice
Description: Compound 4, 85 mg/kg, bid; D. Compound 4, 170 mg/kg, bid; E. Compound 4, 340 mg/kg, bid; F. Donepezil, 1.3 mg/kg. Compared with sham operation group, ## P<0.01; Compared with the model group, * P<0.05.
as §3

SYP [6] = assay: SYP expression by Western blotting, multiple cerebral infarction dementia rats; type: in vivo, SD rats; details: compared with the model group, p<0.05
Description: as §1, §2

ATP = ATP content of hippocampus and cortex, multiple cerebral infarction dementia rats; type: in vivo, SD rats; details: compared with the model group, p<0.05
Description: as §1, §2

PSD95 [7] = assay: PSD95 expression in hippocampus by Western blotting, ischemia-reperfusion dementia mice; type: in vivo, C57BL/6J mice
Description: Compound 4, 85 mg/kg, bid; D. Compound 4, 170 mg/kg, bid; E. Compound 4, 340 mg/kg, bid; F. Donepezil, 1.3 mg/kg. Compared with sham operation group: ### P<0.001; Compared with the model group: ** P<0.01, *** P<0.001.
as §3, with “ml/kg.” for “ml/kg. Half of the animals in the sham operation group and the model group were given the same amount of distilled water, and half of the animals were given the same amount of 1% sodium carboxymethylcellulose solution.”

[8] = second listing in Table VII, Test group vs model group, n = 12-14
[9] = 2-h time point, oral, 0.72 mmol/kg
[10] = Test group vs model group, n = 15-17, dose not stated

## [2H]C([2H])(CCS(=O)(=O)O)NC(=O)[C@@H](N)C(C)C [compound 4, 3-((L-valyl)amino)-3,3-dideuterium-1-propanesulfonic Acid]
[1]; rat model of dementia caused by multiple infarction
  working memory, image recognition and memory, spatial memory and long-term memory impairment: may improve
[1]; rats, gavage
  discrimination coefficient to new objects in the new object discrimination experiment: can improve
  escape latency of directional navigation: can improve
  number of errors entering the dark room in the dark avoidance experiment: can improve
  number of times of crossing the platform: can improve
  percentage of swimming distance in the target quadrant: can improve
  priority index to new objects in the new object discrimination experiment: can improve
  spontaneous alternating reaction rate in the Y maze: can improve
  swimming time in the target quadrant: can improve
  total swimming distance in the water maze test: can improve
[1]; [8]
  Discrimination coefficient for new objects, p compared with model group: p < 0.05
  Priority index for new objects, p compared with model group: p < 0.01
PSD95 [2]
  PSD95 expression: significantly increased
[3]; [9]
  concentration of metabolite (2-carboxy-1-ethanesulfonic acid) in plasma compared to 3APS (of natural abundance): much lower
  plasma drug concentration compared to 3APS (of natural abundance): higher
[3]; mole-equivalent oral dose (0.72 mmol/kg), mouse plasma
  plasma drug exposure compared to 3APS (of natural abundance): improved plasma drug exposure significantly; also recorded: even greater improvement of drug exposure
[3]; mole-equivalent oral dose, mouse plasma, versus 3APS of natural abundance
  increase of Cmax for the drug concentration: ~2 fold
[3]; mole-equivalent oral dose, mouse
  drug metabolism / metabolic profile compared to 3APS: delayed drug metabolism
[3]; oral, mouse plasma
  conversion of prodrug to compound 1 in the subject: converted easily to compound 1
[4]
  arrangement and morphology of neuronal cells in hippocampal CA1 area and CA3 area: significantly improved
  deep staining pyknosis of nuclei in cerebral cortex: significantly reduced
[4]; hippocampal CA1 and CA3 area
  deep staining pyknosis of nuclei: significantly reduced
Nitric oxide (NO)
  NO content: significantly reduced
MBP
  MBP expression: increased
SYP [5]; [10]
  SYP expression, p compared with model group: p < 0.05
SYP [5]; compared with the model group
  expression of SYP: increased
SYP [6]
  SYP expression: significantly increased
ATP
  ATP content of hippocampus and cerebral cortex: significantly increased
PSD95 [7]; [10]
  PSD95 expression, p compared with model group: p < 0.001
PSD95 [7]; compared with the model group
  expression of PSD95: increased
